Biological target: T1, Human BCL-XL protein (N-terminal HiBiT tagged BCL-XL in HT1080 cells) (Homo sapiens, UniProt Q07817)
T1 construct: expressed in transfected cells; host or cells: HT-1080 (ATCC CCL-121), stably transduced with lentivirus pLV-UBC-N-HiBiT-BCL-XL-PGK-puro and selected with puromycin
Test: HiBiT based degradation assay
Assay type: cell-based
Settings: HT1080 cells expressing HiBiT-BCL-XL, 24 h; for Ymin (24 h): BCL-XL degradation normalized with DMSO control; for DC50: BCL-XL degradation, read-out: EC50 (24 h)
In short: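 HT1080 cells stably transduced by lentivirus with N-terminally HiBiT-tagged human BCL-XL and kept under 1 μg/mL puromycin selection were seeded at three thousand cells per well in 40 μL RPMI 1640 into 384-well plates pre-spotted with compounds across a concentration range. Luminescence was read on a PHERAstar FSX, normalized to DMSO, and fitted with a four-parameter logistic model.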

T1 sequence (Q07817 whole entry): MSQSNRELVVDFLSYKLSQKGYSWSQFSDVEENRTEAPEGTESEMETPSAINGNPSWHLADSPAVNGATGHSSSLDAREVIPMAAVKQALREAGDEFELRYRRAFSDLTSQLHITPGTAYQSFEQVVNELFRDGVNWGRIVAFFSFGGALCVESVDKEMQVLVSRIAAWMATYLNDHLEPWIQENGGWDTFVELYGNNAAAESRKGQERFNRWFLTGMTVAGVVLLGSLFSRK

Row | SMILES | Ymin (24 h) | DC50
1 | Cn1nc(C2CCC(=O)NC2=O)c2ccc(N3CCN(CCCC[C@H]4CC[C@H](Oc5cccc(-c6ccc(N7CCc8cccc(C(=O)Nc9nc%10ccccc%10s9)c8C7)nc6C(=O)O)c5C(F)(F)F)CC4)CC3)cc21 (stereo partly drawn) [Compound 319a, 6-(8-(benzo[d]thiazol-2-ylcarbamoyl)-3,4-dihydroisoquinolin-2(1H)-yl)-3-(3-(((1s,4r)-4-(4-(4-(3-(2,6-dioxopiperidin-3-yl)-1-methyl-1H-indazol-6-yl)piperazin-1-yl)butyl)cyclohexyl)oxy)-2-(trifluoromethyl)phenyl)picolinic acid] | A (Ymin < 50%) | < 100 nM
2 | Cc1c(O[C@H]2CC[C@H](CCCCN3CCN(c4ccc5c(C6CCC(=O)NC6=O)nn(C)c5c4)C(C)(C)C3)CC2)cccc1-c1ccc(N2CCc3cccc(C(=O)Nc4nc5ccccc5s4)c3C2)nc1C(=O)O (stereo partly drawn) [Compound 322a, 6-(8-(benzo[d]thiazol-2-ylcarbamoyl)-3,4-dihydroisoquinolin-2(1H)-yl)-3-(3-(((1s,4r)-4-(4-(4-(3-(2,6-dioxopiperidin-3-yl)-1-methyl-1H-indazol-6-yl)-3,3-dimethylpiperazin-1-yl)butyl)cyclohexyl)oxy)-2-methylphenyl)picolinic acid] | A (Ymin < 50%) | < 100 nM
3 | Cc1c(O[C@H]2CC[C@H](CCCCN3CCN(c4ccc5c(C6CCC(=O)NC6=O)nn(C)c5c4)CC3(C)C)CC2)cccc1-c1ccc(N2CCc3cccc(C(=O)Nc4nc5ccccc5s4)c3C2)nc1C(=O)O (stereo partly drawn) [Compound 323a, 6-(8-(benzo[d]thiazol-2-ylcarbamoyl)-3,4-dihydroisoquinolin-2(1H)-yl)-3-(3-(((1s,4r)-4-(4-(4-(3-(2,6-dioxopiperidin-3-yl)-1-methyl-1H-indazol-6-yl)-2,2-dimethylpiperazin-1-yl)butyl)cyclohexyl)oxy)-2-methylphenyl)picolinic acid] | A (Ymin < 50%) | < 100 nM
4 | Cc1c(O[C@H]2CC[C@H](CCCCN3CCN(c4ccc5c(C6CCC(=O)NC6=O)nn(C)c5c4C)CC3)CC2)cccc1-c1ccc(N2CCc3cccc(C(=O)Nc4nc5ccccc5s4)c3C2)nc1C(=O)O (stereo partly drawn) [Compound 324a, 6-(8-(benzo[d]thiazol-2-ylcarbamoyl)-3,4-dihydroisoquinolin-2(1H)-yl)-3-(3-(((1s,4r)-4-(4-(4-(3-(2,6-dioxopiperidin-3-yl)-1,7-dimethyl-1H-indazol-6-yl)piperazin-1-yl)butyl)cyclohexyl)oxy)-2-methylphenyl)picolinic acid] | A (Ymin < 50%) | < 100 nM
5 | Cc1cc2c(C3CCC(=O)NC3=O)nn(C)c2cc1N1CCN(CCCC[C@H]2CC[C@H](Oc3cccc(-c4ccc(N5CCc6cccc(C(=O)Nc7nc8ccccc8s7)c6C5)nc4C(=O)O)c3C)CC2)CC1 (stereo partly drawn) [Compound 325a, 6-(8-(benzo[d]thiazol-2-ylcarbamoyl)-3,4-dihydroisoquinolin-2(1H)-yl)-3-(3-(((1s,4r)-4-(4-(4-(3-(2,6-dioxopiperidin-3-yl)-1,5-dimethyl-1H-indazol-6-yl)piperazin-1-yl)butyl)cyclohexyl)oxy)-2-methylphenyl)picolinic acid] | A (Ymin < 50%) | < 100 nM
6 | Cc1c(O[C@H]2CC[C@H](CCCCN3CCC(Oc4ccc5c(C6CCC(=O)NC6=O)nn(C)c5c4)CC3)CC2)cccc1-c1ccc(N2CCc3cccc(C(=O)Nc4nc5ccccc5s4)c3C2)nc1C(=O)O (stereo partly drawn) [Compound 326a, 6-(8-(benzo[d]thiazol-2-ylcarbamoyl)-3,4-dihydroisoquinolin-2(1H)-yl)-3-(3-(((1s,4r)-4-(4-(4-((3-(2,6-dioxopiperidin-3-yl)-1-methyl-1H-indazol-6-yl)oxy)piperidin-1-yl)butyl)cyclohexyl)oxy)-2-methylphenyl)picolinic acid] | A (Ymin < 50%) | < 100 nM
7 | Cc1c(O[C@H]2CC[C@H](CCCCN3CCC(Oc4cccc5c(C6CCC(=O)NC6=O)nn(C)c45)CC3)CC2)cccc1-c1ccc(N2CCc3cccc(C(=O)Nc4nc5ccccc5s4)c3C2)nc1C(=O)O (stereo partly drawn) [Compound 327a, 6-(8-(benzo[d]thiazol-2-ylcarbamoyl)-3,4-dihydroisoquinolin-2(1H)-yl)-3-(3-(((1s,4r)-4-(4-(4-((3-(2,6-dioxopiperidin-3-yl)-1-methyl-1H-indazol-7-yl)oxy)piperidin-1-yl)butyl)cyclohexyl)oxy)-2-methylphenyl)picolinic acid] | A (Ymin < 50%) | < 100 nM
8 | Cn1nc(C2CCC(=O)NC2=O)c2ccc(N3CCN(CCC[C@H]4CC[C@H](Oc5cccc(-c6ccc(N7CCc8cccc(C(=O)Nc9nc%10ccccc%10s9)c8C7)nc6C(=O)O)c5C(F)(F)F)CC4)CC3)cc21 (stereo partly drawn) [Compound 328a, 6-(8-(benzo[d]thiazol-2-ylcarbamoyl)-3,4-dihydroisoquinolin-2(1H)-yl)-3-(3-(((1s,4r)-4-(3-(4-(3-(2,6-dioxopiperidin-3-yl)-1-methyl-1H-indazol-6-yl)piperazin-1-yl)propyl)cyclohexyl)oxy)-2-(trifluoromethyl)phenyl)picolinic acid] | A (Ymin < 50%) | < 100 nM
9 | Cn1nc(C2CCC(=O)NC2=O)c2ccc(N3CCN(CCCC[C@H]4CC[C@H](Oc5cccc(-c6ccc(N7CCc8cccc(C(=O)Nc9nc%10ccccc%10s9)c8C7)nc6C(=O)O)c5)CC4)CC3)cc21 (stereo partly drawn) [Compound 329a, 6-(8-(benzo[d]thiazol-2-ylcarbamoyl)-3,4-dihydroisoquinolin-2(1H)-yl)-3-(3-(((1s,4r)-4-(4-(4-(3-(2,6-dioxopiperidin-3-yl)-1-methyl-1H-indazol-6-yl)piperazin-1-yl)butyl)cyclohexyl)oxy)phenyl)picolinic acid] | A (Ymin < 50%) | < 100 nM
10 | Cn1nc(C2CCC(=O)NC2=O)c2ccc(N3CCN(CCC[C@H]4CC[C@H](Oc5cccc(-c6ccc(N7CCc8cccc(C(=O)Nc9nc%10ccccc%10s9)c8C7)nc6C(=O)O)c5)CC4)CC3)cc21 (stereo partly drawn) [Compound 330a, 6-(8-(benzo[d]thiazol-2-ylcarbamoyl)-3,4-dihydroisoquinolin-2(1H)-yl)-3-(3-(((1s,4r)-4-(3-(4-(3-(2,6-dioxopiperidin-3-yl)-1-methyl-1H-indazol-6-yl)piperazin-1-yl)propyl)cyclohexyl)oxy)phenyl)picolinic acid] | A (Ymin < 50%) | < 100 nM
11 | Cc1c(O[C@H]2CC[C@H](CCCN3CCN(c4ccc5c(C6CCC(=O)NC6=O)nn(C)c5c4C)CC3)CC2)cccc1-c1ccc(N2CCc3cccc(C(=O)Nc4nc5ccccc5s4)c3C2)nc1C(=O)O (stereo partly drawn) [Compound 334a, 6-(8-(benzo[d]thiazol-2-ylcarbamoyl)-3,4-dihydroisoquinolin-2(1H)-yl)-3-(3-(((1s,4r)-4-(3-(4-(3-(2,6-dioxopiperidin-3-yl)-1,7-dimethyl-1H-indazol-6-yl)piperazin-1-yl)propyl)cyclohexyl)oxy)-2-methylphenyl)picolinic acid] | A (Ymin < 50%) | < 100 nM
12 | Cc1cc2c(C3CCC(=O)NC3=O)nn(C)c2cc1N1CCN(CCC[C@H]2CC[C@H](Oc3cccc(-c4ccc(N5CCc6cccc(C(=O)Nc7nc8ccccc8s7)c6C5)nc4C(=O)O)c3C)CC2)CC1 (stereo partly drawn) [Compound 335a, 6-(8-(benzo[d]thiazol-2-ylcarbamoyl)-3,4-dihydroisoquinolin-2(1H)-yl)-3-(3-(((1s,4r)-4-(3-(4-(3-(2,6-dioxopiperidin-3-yl)-1,5-dimethyl-1H-indazol-6-yl)piperazin-1-yl)propyl)cyclohexyl)oxy)-2-methylphenyl)picolinic acid] | A (Ymin < 50%) | < 100 nM
